The NIST ThermoML archive (doi:10.1016/j.jct.2004.08.003)
Numbers after ± are expanded uncertainties.

What was measured:
[1] = xn = mol fraction of the nth substance listed; settings: 101.3 kPa, Liquid
[2] = relative permittivity at various frequencies (dimensionless); xn = mol fraction of the nth substance listed; settings: 101.3 kPa, Liquid, HP4284A LCR Meter with HP16452A measuring cell

COCCOCCOCCOC [2,5,8,11-tetraoxadodecane] + CCCCCCCCC
Settings | mass density [kg/m3] | relative permittivity
[1], 288.15 K, x1 = 0.0981 | 746.25 ± 1.1 | –
[1], 288.15 K, x1 = 0.1985 | 771.84 ± 0.99 | –
[1], 288.15 K, x1 = 0.2459 | 784.06 ± 0.96 | –
[1], 288.15 K, x1 = 0.2944 | 796.71 ± 0.93 | –
[1], 288.15 K, x1 = 0.3937 | 822.83 ± 0.86 | –
[1], 288.15 K, x1 = 0.4957 | 850.01 ± 0.8 | –
[1], 288.15 K, x1 = 0.5957 | 876.93 ± 0.73 | –
[1], 288.15 K, x1 = 0.6952 | 904 ± 0.68 | –
[1], 288.15 K, x1 = 0.7937 | 931.06 ± 0.63 | –
[1], 288.15 K, x1 = 0.9005 | 960.86 ± 0.59 | –
[1], 288.15 K, x1 = 0.9494 | 974.71 ± 0.58 | –
[1], 293.15 K, x1 = 0.1006 | 742.71 ± 1.1 | –
[1], 293.15 K, x1 = 0.1961 | 766.97 ± 1 | –
[1], 293.15 K, x1 = 0.2461 | 779.84 ± 0.97 | –
[1], 293.15 K, x1 = 0.2982 | 793.34 ± 0.94 | –
[1], 293.15 K, x1 = 0.3979 | 819.48 ± 0.87 | –
[1], 293.15 K, x1 = 0.4995 | 846.49 ± 0.81 | –
[1], 293.15 K, x1 = 0.5939 | 871.77 ± 0.75 | –
[1], 293.15 K, x1 = 0.6986 | 900.11 ± 0.69 | –
[1], 293.15 K, x1 = 0.7979 | 927.37 ± 0.64 | –
[1], 293.15 K, x1 = 0.9022 | 956.37 ± 0.6 | –
[1], 293.15 K, x1 = 0.95 | 969.87 ± 0.59 | –
[1], 298.15 K, x1 = 0.1006 | 738.55 ± 1.1 | –
[1], 298.15 K, x1 = 0.1961 | 762.73 ± 1 | –
[1], 298.15 K, x1 = 0.2461 | 775.58 ± 0.98 | –
[1], 298.15 K, x1 = 0.2982 | 789.07 ± 0.95 | –
[1], 298.15 K, x1 = 0.3979 | 815.17 ± 0.88 | –
[1], 298.15 K, x1 = 0.4995 | 842.12 ± 0.82 | –
[1], 298.15 K, x1 = 0.5939 | 867.4 ± 0.76 | –
[1], 298.15 K, x1 = 0.6986 | 895.69 ± 0.7 | –
[1], 298.15 K, x1 = 0.7979 | 922.84 ± 0.65 | –
[1], 298.15 K, x1 = 0.9022 | 951.81 ± 0.61 | –
[1], 298.15 K, x1 = 0.95 | 965.31 ± 0.6 | –
[1], 303.15 K, x1 = 0.0982 | 733.94 ± 1.1 | –
[1], 303.15 K, x1 = 0.2002 | 759.61 ± 1 | –
[1], 303.15 K, x1 = 0.2485 | 771.99 ± 0.99 | –
[1], 303.15 K, x1 = 0.2996 | 785.17 ± 0.96 | –
[1], 303.15 K, x1 = 0.3994 | 811.21 ± 0.89 | –
[1], 303.15 K, x1 = 0.495 | 836.5 ± 0.83 | –
[1], 303.15 K, x1 = 0.5989 | 864.2 ± 0.77 | –
[1], 303.15 K, x1 = 0.6998 | 891.41 ± 0.71 | –
[1], 303.15 K, x1 = 0.8005 | 918.9 ± 0.66 | –
[1], 303.15 K, x1 = 0.8999 | 946.47 ± 0.62 | –
[1], 303.15 K, x1 = 0.9499 | 960.53 ± 0.6 | –
[1], 308.15 K, x1 = 0.0977 | 729.91 ± 1.1 | –
[1], 308.15 K, x1 = 0.1975 | 754.98 ± 1 | –
[1], 308.15 K, x1 = 0.2469 | 767.58 ± 1 | –
[1], 308.15 K, x1 = 0.2964 | 780.35 ± 0.97 | –
[1], 308.15 K, x1 = 0.3944 | 805.91 ± 0.91 | –
[1], 308.15 K, x1 = 0.4956 | 832.62 ± 0.84 | –
[1], 308.15 K, x1 = 0.5976 | 859.8 ± 0.78 | –
[1], 308.15 K, x1 = 0.6967 | 886.45 ± 0.72 | –
[1], 308.15 K, x1 = 0.7937 | 912.91 ± 0.67 | –
[1], 308.15 K, x1 = 0.9021 | 942.91 ± 0.62 | –
[1], 308.15 K, x1 = 0.9497 | 956.38 ± 0.61 | –
[1], 318.15 K, x1 = 0.0998 | 722.15 ± 1.1 | –
[1], 318.15 K, x1 = 0.1975 | 746.41 ± 1.1 | –
[1], 318.15 K, x1 = 0.2484 | 759.29 ± 1 | –
[1], 318.15 K, x1 = 0.3021 | 773.02 ± 1 | –
[1], 318.15 K, x1 = 0.3883 | 795.32 ± 0.94 | –
[1], 318.15 K, x1 = 0.4998 | 824.5 ± 0.87 | –
[1], 318.15 K, x1 = 0.5991 | 850.79 ± 0.8 | –
[1], 318.15 K, x1 = 0.6998 | 877.63 ± 0.74 | –
[1], 318.15 K, x1 = 0.799 | 904.47 ± 0.69 | –
[1], 318.15 K, x1 = 0.9009 | 932.54 ± 0.64 | –
[1], 318.15 K, x1 = 0.9498 | 946.28 ± 0.63 | –
[1], 328.15 K, x1 = 0.0998 | 713.9 ± 1.2 | –
[1], 328.15 K, x1 = 0.1975 | 737.96 ± 1.1 | –
[1], 328.15 K, x1 = 0.2484 | 750.75 ± 1.1 | –
[1], 328.15 K, x1 = 0.3021 | 764.37 ± 1 | –
[1], 328.15 K, x1 = 0.3883 | 786.52 ± 0.96 | –
[1], 328.15 K, x1 = 0.4998 | 815.5 ± 0.89 | –
[1], 328.15 K, x1 = 0.5991 | 841.63 ± 0.83 | –
[1], 328.15 K, x1 = 0.6998 | 868.32 ± 0.76 | –
[1], 328.15 K, x1 = 0.799 | 894.99 ± 0.71 | –
[1], 328.15 K, x1 = 0.9009 | 922.95 ± 0.66 | –
[1], 328.15 K, x1 = 0.95 | 936.74 ± 0.64 | –
[2], 288.15 K, x1 = 0.0979 | – | 2.32 ± 0.05
[2], 288.15 K, x1 = 0.1997 | – | 2.72 ± 0.05
[2], 288.15 K, x1 = 0.2461 | – | 2.91 ± 0.06
[2], 288.15 K, x1 = 0.2965 | – | 3.15 ± 0.06
[2], 288.15 K, x1 = 0.3969 | – | 3.65 ± 0.07
[2], 288.15 K, x1 = 0.5043 | – | 4.24 ± 0.08
[2], 288.15 K, x1 = 0.6013 | – | 4.83 ± 0.1
[2], 288.15 K, x1 = 0.6972 | – | 5.48 ± 0.11
[2], 288.15 K, x1 = 0.7975 | – | 6.22 ± 0.12
[2], 288.15 K, x1 = 0.8996 | – | 7.02 ± 0.14
[2], 288.15 K, x1 = 0.9503 | – | 7.44 ± 0.15
[2], 293.15 K, x1 = 0.0979 | – | 2.3 ± 0.05
[2], 293.15 K, x1 = 0.1999 | – | 2.7 ± 0.05
[2], 293.15 K, x1 = 0.2483 | – | 2.9 ± 0.06
[2], 293.15 K, x1 = 0.2962 | – | 3.12 ± 0.06
[2], 293.15 K, x1 = 0.3968 | – | 3.61 ± 0.07
[2], 293.15 K, x1 = 0.5047 | – | 4.2 ± 0.08
[2], 293.15 K, x1 = 0.6015 | – | 4.78 ± 0.1
[2], 293.15 K, x1 = 0.6957 | – | 5.4 ± 0.11
[2], 293.15 K, x1 = 0.7975 | – | 6.11 ± 0.12
[2], 293.15 K, x1 = 0.8996 | – | 6.9 ± 0.14
[2], 293.15 K, x1 = 0.951 | – | 7.31 ± 0.15
[2], 298.15 K, x1 = 0.0975 | – | 2.3 ± 0.05
[2], 298.15 K, x1 = 0.2091 | – | 2.72 ± 0.05
[2], 298.15 K, x1 = 0.2569 | – | 2.92 ± 0.06
[2], 298.15 K, x1 = 0.2955 | – | 3.08 ± 0.06
[2], 298.15 K, x1 = 0.4035 | – | 3.61 ± 0.07
[2], 298.15 K, x1 = 0.5005 | – | 4.13 ± 0.08
[2], 298.15 K, x1 = 0.5944 | – | 4.67 ± 0.09
[2], 298.15 K, x1 = 0.6956 | – | 5.32 ± 0.11
[2], 298.15 K, x1 = 0.8007 | – | 6.04 ± 0.12
[2], 298.15 K, x1 = 0.901 | – | 6.79 ± 0.14
[2], 298.15 K, x1 = 0.9489 | – | 7.17 ± 0.14
[2], 303.15 K, x1 = 0.099 | – | 2.28 ± 0.05
[2], 303.15 K, x1 = 0.2015 | – | 2.66 ± 0.05
[2], 303.15 K, x1 = 0.2491 | – | 2.86 ± 0.06
[2], 303.15 K, x1 = 0.297 | – | 3.06 ± 0.06
[2], 303.15 K, x1 = 0.4001 | – | 3.56 ± 0.07
[2], 303.15 K, x1 = 0.4967 | – | 4.06 ± 0.08
[2], 303.15 K, x1 = 0.596 | – | 4.63 ± 0.09
[2], 303.15 K, x1 = 0.6976 | – | 5.27 ± 0.11
[2], 303.15 K, x1 = 0.7976 | – | 5.93 ± 0.12
[2], 303.15 K, x1 = 0.9012 | – | 6.69 ± 0.13
[2], 303.15 K, x1 = 0.9496 | – | 7.06 ± 0.14
[2], 308.15 K, x1 = 0.0979 | – | 2.26 ± 0.05
[2], 308.15 K, x1 = 0.1997 | – | 2.63 ± 0.05
[2], 308.15 K, x1 = 0.2461 | – | 2.81 ± 0.06
[2], 308.15 K, x1 = 0.2965 | – | 3.03 ± 0.06
[2], 308.15 K, x1 = 0.3969 | – | 3.49 ± 0.07
[2], 308.15 K, x1 = 0.5043 | – | 4.05 ± 0.08
[2], 308.15 K, x1 = 0.6013 | – | 4.6 ± 0.09
[2], 308.15 K, x1 = 0.6972 | – | 5.19 ± 0.1
[2], 308.15 K, x1 = 0.7975 | – | 5.85 ± 0.12
[2], 308.15 K, x1 = 0.8996 | – | 6.58 ± 0.13
[2], 308.15 K, x1 = 0.9503 | – | 6.96 ± 0.14
[2], 318.15 K, x1 = 0.0987 | – | 2.24 ± 0.05
[2], 318.15 K, x1 = 0.2016 | – | 2.6 ± 0.05
[2], 318.15 K, x1 = 0.248 | – | 2.78 ± 0.06
[2], 318.15 K, x1 = 0.2973 | – | 2.97 ± 0.06
[2], 318.15 K, x1 = 0.4 | – | 3.43 ± 0.07
[2], 318.15 K, x1 = 0.502 | – | 3.94 ± 0.08
[2], 318.15 K, x1 = 0.6006 | – | 4.48 ± 0.09
[2], 318.15 K, x1 = 0.6982 | – | 5.07 ± 0.1
[2], 318.15 K, x1 = 0.8053 | – | 5.75 ± 0.12
[2], 318.15 K, x1 = 0.9018 | – | 6.42 ± 0.13
[2], 318.15 K, x1 = 0.9503 | – | 6.75 ± 0.14
[2], 328.15 K, x1 = 0.1007 | – | 2.23 ± 0.04
[2], 328.15 K, x1 = 0.2003 | – | 2.57 ± 0.05
[2], 328.15 K, x1 = 0.2486 | – | 2.75 ± 0.06
[2], 328.15 K, x1 = 0.2973 | – | 2.95 ± 0.06
[2], 328.15 K, x1 = 0.3958 | – | 3.38 ± 0.07
[2], 328.15 K, x1 = 0.496 | – | 3.86 ± 0.08
[2], 328.15 K, x1 = 0.5967 | – | 4.38 ± 0.09
[2], 328.15 K, x1 = 0.6922 | – | 4.92 ± 0.1
[2], 328.15 K, x1 = 0.798 | – | 5.55 ± 0.11
[2], 328.15 K, x1 = 0.8997 | – | 6.21 ± 0.12
[2], 328.15 K, x1 = 0.9487 | – | 6.53 ± 0.13
